# Measurements from patent US12448395B2 (BRISTOL-MYERS SQUIBB COMPANY, priority 2019, dated 2025).
# Structures can show the parent of a compound that is named as a salt.
# What was measured:
# Format in all cases: cell-based
# [1] = target: T1, human TLR7 (Homo sapiens, UniProt Q9NYK1); experiment: TLR7 inhibition reporter assay (HEK-Blue SEAP, gardiquimod stimulation); conditions: HEK-Blue cells overexpressing human TLR7, gardiquimod 7.5 μM
# T1 sequence (Q9NYK1 27-1049): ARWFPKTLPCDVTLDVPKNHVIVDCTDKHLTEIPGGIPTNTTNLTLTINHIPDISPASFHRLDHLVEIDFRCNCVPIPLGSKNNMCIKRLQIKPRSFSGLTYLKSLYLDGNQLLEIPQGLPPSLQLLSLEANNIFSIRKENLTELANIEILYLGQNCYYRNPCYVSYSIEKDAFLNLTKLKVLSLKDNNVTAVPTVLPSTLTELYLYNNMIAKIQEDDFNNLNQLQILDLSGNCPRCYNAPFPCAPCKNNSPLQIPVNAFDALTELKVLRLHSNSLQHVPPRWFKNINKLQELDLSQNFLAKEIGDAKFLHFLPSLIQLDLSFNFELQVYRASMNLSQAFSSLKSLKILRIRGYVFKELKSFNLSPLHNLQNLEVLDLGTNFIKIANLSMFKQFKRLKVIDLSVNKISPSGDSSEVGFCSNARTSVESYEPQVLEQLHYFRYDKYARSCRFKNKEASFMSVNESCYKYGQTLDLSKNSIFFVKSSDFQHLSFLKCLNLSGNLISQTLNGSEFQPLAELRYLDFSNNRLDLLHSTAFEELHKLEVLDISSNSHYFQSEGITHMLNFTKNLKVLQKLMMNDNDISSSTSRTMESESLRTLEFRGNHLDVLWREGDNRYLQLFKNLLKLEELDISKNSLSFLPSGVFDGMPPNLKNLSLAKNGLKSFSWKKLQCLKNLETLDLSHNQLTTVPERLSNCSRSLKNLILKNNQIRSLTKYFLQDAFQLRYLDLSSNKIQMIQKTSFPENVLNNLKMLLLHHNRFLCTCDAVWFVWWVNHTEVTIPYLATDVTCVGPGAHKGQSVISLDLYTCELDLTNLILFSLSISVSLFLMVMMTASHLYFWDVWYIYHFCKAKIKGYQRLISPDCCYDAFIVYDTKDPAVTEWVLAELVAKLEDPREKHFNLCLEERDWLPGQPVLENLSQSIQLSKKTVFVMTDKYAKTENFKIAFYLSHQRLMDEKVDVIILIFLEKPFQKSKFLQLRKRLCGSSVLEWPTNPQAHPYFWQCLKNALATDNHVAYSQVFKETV
# Procedure: (§1) TLR7/8/9 Inhibition Reporter Assays
# (§2) HEK-Blue™-cells (Invivogen) overexpressing human TLR7, TLR8 or TLR9 receptors were used for screening inhibitors of these receptors using an inducible SEAP (secreted embryonic alkaline phosphatase) reporter gene under the control of the IFN-β minimal promoter fused to five NF-κB and AP-1-binding sites. Briefly, cells are seeded into Greiner 384 well plates (15000 cells per well for TLR7, 20,000 for TLR8 and 25,000 for TLR9) and then treated with test compounds in DMSO to yield a final dose response concentration range of 0.05 nM-50 μM. After a 30 minute compound pre-treatment at room temperature, the cells are then stimulated with a TLR7 ligand (gardiquimod at a final concentration of 7.5 μM), TLR8 ligand (R848 at a final concentration of 15.9 μM) or TLR9 ligand (ODN2006 at a final concentration of 5 nM) to activate NF-κB and AP-1 which induce the production of SEAP. After a 22 hour incubation at 37° C., 5% CO2, SEAP levels are determined with the addition of HEK-Blue™ Detection reagent (Invivogen), a cell culture medium that allows for detection of SEAP, according to manufacturer's specifications. The percent inhibition is determined as the % reduction in the HEK-Blue signal present in wells treated with agonist plus DMSO alone compared to wells treated with a known inhibitor.
# [2] = target: T2, human TLR8 (Homo sapiens, UniProt Q9NR97); experiment: TLR8 inhibition reporter assay (HEK-Blue SEAP, R848 stimulation); conditions: HEK-Blue cells overexpressing human TLR8, R848 15.9 μM
# T2 sequence (Q9NR97 27-1041): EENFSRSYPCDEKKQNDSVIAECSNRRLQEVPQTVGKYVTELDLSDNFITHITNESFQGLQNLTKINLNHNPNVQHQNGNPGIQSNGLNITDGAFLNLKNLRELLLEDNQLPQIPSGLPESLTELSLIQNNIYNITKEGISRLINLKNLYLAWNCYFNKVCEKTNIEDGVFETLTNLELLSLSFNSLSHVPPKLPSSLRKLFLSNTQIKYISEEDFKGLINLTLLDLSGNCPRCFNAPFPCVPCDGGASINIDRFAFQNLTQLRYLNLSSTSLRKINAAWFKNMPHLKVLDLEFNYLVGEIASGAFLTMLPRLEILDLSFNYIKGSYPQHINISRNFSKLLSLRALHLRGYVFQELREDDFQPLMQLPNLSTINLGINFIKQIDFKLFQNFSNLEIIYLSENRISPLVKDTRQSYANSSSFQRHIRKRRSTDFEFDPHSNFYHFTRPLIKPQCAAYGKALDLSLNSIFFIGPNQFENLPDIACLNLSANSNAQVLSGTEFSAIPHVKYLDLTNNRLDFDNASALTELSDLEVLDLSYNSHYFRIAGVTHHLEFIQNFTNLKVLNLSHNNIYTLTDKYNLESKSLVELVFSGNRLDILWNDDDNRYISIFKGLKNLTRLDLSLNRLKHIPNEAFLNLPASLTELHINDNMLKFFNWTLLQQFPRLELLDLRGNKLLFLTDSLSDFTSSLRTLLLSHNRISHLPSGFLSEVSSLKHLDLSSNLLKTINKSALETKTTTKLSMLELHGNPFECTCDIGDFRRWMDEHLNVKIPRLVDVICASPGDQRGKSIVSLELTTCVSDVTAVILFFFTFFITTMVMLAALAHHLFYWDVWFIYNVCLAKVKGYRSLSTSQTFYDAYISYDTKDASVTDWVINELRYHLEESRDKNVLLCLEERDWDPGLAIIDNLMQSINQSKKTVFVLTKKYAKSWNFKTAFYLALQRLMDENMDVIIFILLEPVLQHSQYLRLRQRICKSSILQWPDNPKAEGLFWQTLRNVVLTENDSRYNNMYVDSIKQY
# Procedure: as §1, §2
# [3] = target: T3, human TLR9 (Homo sapiens, UniProt Q9NR96); experiment: TLR9 inhibition reporter assay (HEK-Blue SEAP, ODN2006 stimulation); conditions: HEK-Blue cells overexpressing human TLR9, ODN2006 5 nM
# T3 sequence (Q9NR96 26-1032): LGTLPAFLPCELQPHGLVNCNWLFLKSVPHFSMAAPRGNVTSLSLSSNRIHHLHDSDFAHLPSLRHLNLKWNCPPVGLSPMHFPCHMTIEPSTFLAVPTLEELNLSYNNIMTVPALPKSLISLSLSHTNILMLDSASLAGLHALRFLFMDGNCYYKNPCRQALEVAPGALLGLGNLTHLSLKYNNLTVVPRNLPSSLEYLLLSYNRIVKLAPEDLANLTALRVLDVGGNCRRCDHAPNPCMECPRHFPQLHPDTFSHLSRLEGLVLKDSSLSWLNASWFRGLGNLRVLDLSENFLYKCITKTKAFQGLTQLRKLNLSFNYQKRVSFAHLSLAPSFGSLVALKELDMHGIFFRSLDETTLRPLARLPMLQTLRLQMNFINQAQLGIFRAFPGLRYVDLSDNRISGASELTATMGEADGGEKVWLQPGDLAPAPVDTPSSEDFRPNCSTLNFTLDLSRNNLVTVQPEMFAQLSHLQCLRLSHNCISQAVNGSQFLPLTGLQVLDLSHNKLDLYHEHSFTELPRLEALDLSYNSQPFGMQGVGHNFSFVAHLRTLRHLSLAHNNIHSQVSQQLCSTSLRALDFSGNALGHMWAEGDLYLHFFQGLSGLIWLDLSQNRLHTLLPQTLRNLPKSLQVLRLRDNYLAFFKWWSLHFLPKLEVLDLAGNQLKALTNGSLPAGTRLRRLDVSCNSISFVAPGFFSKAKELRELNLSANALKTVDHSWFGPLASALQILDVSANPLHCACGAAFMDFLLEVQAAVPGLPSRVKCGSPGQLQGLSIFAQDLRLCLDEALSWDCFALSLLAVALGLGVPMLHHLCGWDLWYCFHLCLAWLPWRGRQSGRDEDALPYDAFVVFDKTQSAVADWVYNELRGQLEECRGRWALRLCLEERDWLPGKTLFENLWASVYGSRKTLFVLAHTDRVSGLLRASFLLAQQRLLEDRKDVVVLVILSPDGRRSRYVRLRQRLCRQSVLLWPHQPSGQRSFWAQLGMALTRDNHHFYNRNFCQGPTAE
# How it was run: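 Screening used HEK-Blue cells overexpressing one human TLR (7, 8 or 9) and an IFN-β minimal promoter–NF-κB/AP-1 SEAP construct. Stimulation lasted 22 h at 37 °C with receptor-specific agonist: gardiquimod, R848 or ODN2006 at 7.5 μM, 15.9 μM and 5 nM.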
IC50 [1] [nM],IC50 [2] [nM],IC50 [3] [µM],SMILES
0.18,0.09,15.8,"Cc1c(-c2[nH]c3sc(N4CCNC[C@H]4C)nc3c2C(C)C)cn2ncnc2c1C [Example 308, (R)-5-(7,8-dimethyl-[1,2,4]triazolo[1,5-a]pyridin-6-yl)-6-isopropyl-2-(2-methylpiperazin-1-yl)-4H-pyrrolo[3,2-d]thiazole, HCl]"
2.27,0.64,12.6,"Cc1c(-c2[nH]c3sc(C4CCC(NCC(=O)N5CCOCC5)CC4)nc3c2C(C)C)cn2ncnc2c1C (single isomer, unassigned) [Example 206, 2-((4-(5-(7,8-dimethyl-[1,2,4]triazolo[1,5-a]pyridin-6-yl)-6-isopropyl-4H-pyrrolo[3,2-d]thiazol-2-yl)cyclohexyl)amino)-1-morpholinoethan-1-one]"
